Results taken from patent US6500944B2, “Sulfurizing reagent: 3-aryl-1,2,4-dithiazoline-5-ones” (Avecia Biotechnology, Inc., priority 1997, dated 2002).

Assays:
[1] = Solubility study in CH3CN; assay type: physicochemical; details: 25° C.
Protocol: (§1) The solubility and stability studies were carried out in CH3CN at 25° C. The saturated solution was dried, and the solubility was determined by the weight of the testing compounds in the exact volume of testing solution. The stability was determined based on either TLC or HPLC and ^1H-NMR analyses.

Stability study in CH3CN = assay type: physicochemical; details: 25° C., checked by HPLC and 1H-NMR
Protocol: Stability and solubility studies of the sulfur transfer reagents were performed. […] The stability of the compound was checked by HPLC and ^1H-NMR.
as §1

With O=c1nc(-c2ccccc2)ss1 [3-phenyl-1,2,4-dithiazoline-5-one] the “solubility in CH3CN” value [1] was “highly soluble” and the “stable in CH3CN” value (Stability study in CH3CN) was “more than thirty”.
